From patent publication US20050074777A1, “Novel cell-surface estrogen receptor and related compositions and methods” (priority 2002, published 2005)

Assays:
[1] = test system: estrogen-binding protein (ER-X); experiment: DES-sensitive 3H-estradiol binding in CLM preparations and lysates; set-up: species or system mouse
Method: Caveolar-like membrane (CLM) preparation. Membrane fractions were prepared by adapting the detergent-free method of Smart et al. (Smart, 1995). Briefly, pools of 40-50 P7 ERKO neocortices were homogenized in 20 mM Tricine, pH 7.8 buffer, containing 1 mM EDTA, 0.25M sucrose and 1 mM dithiothreitol (TESD buffer), then centrifuged at 1000×g at 4° C. for 10 minutes. The pellet was resuspended in TESD buffer, re-centrifuged, and the supernatants pooled. The combined supernatants were subjected to Percoll® gradient fractionation in the same buffer to isolate the plasma membrane fraction. In some binding experiments (indicated below), Percoll® purified plasma membranes were used without further fractionation. For preparation of CLMs, plasma-membranes were sonicated and further separated by centrifugation on a linear 20% to 10% OptiPrep (iodixanol) gradient (Nycomed Pharma AS, Oslo, Norway). Based upon their light buoyant density, CLMs were separated and purified from non-CLMs using two OptiPrep density gradients. […] Electrophoretically separated CLMs on PVDF membranes were probed with antibodies specific for ER-α ([…], UBI; MC20, Santa Cruz), ER-β (Zymed), flotillin (BD Transduction Labs) and other caveolar-resident proteins (PKC-α and PKC-γ, BD Transduction Labs) and non-caveolar-resident proteins (paxillin, BD Transduction Labs). Estrogen binding assay. Duplicate aliquots of 1 mg each of protein lysate from ERKO P7 neocortex or wild-type adult uterus were pre-cleared for 30 minutes using anti-rabbit-IgG-coated magnetic beads (Dynal AS). Pre-cleared protein lysates were immunoprecipitated with anti-ER-α antibodies (6F11, Novocastra; or MC20, Santa Cruz) at 4° C. overnight. […] NEN Life Sciences, Boston, Mass.) at 4° C. for 18 hours. The incubation was terminated by adsorption of the binding sites onto an equal volume of hydroxylapatite (HAP) slurry in TESD buffer. HAP pellets were washed four times with Tris-buffered saline containing 0.2% Tween-20 buffer and extracted with 1 ml absolute ethanol overnight at room temperature. The ethanol supernatants were transferred to liquid scintillation fluid (5 ml) and counted. Control tubes, used in assessing HAP adsorption of free steroid, contained HAP and the same buffer constituents, without addition of the membranes. Non-specific binding was assayed in the membranes using the same amount of radioactive ligand plus 200-fold molar excess of unlabeled diethylstilbestrol (DES) (Sigma-Aldrich). Specific binding was calculated by subtracting non-specific from total binding.

[2] = target: ER-X (plasma-membrane estrogen binding site of P7 ERKO and wild-type neocortex); experiment: 3H-estradiol saturation binding to Percoll-purified neocortical plasma-membranes; set-up: species or system mouse; settings: Percoll-purified plasma-membranes from P7 ERKO and wild-type neocortex, 50 μg/tube, 18 hours at 4° C.; read-out: equilibrium dissociation constant, Kd
Method: Binding of ^3H estradiol to Percoll®-purified plasma-membranes from P7 ERKO and wild-type mouse neocortex. (a) Identical amounts of membrane protein (50 μg/tube) were incubated with varying concentrations of ^3H estradiol (0.3-8 nM) for 18 hours at 4° C. The reaction was terminated by addition of hydroxylapatite (HAP). The membranes and HAP were sedimented by centrifugation in a microfuge, and the pellet washed 4 times to remove free steroid. Radioactivity in the pellets was extracted with ethanol and counted. […] (b) Specificity of the binding site in Percoll®-purified membranes from P7 ERKO mouse neocortex. […] Bound ^3H estradiol was separated by sedimentation with HAP and counted at an efficiency of 50%. Data represent the number of bound counts (after subtraction of HAP-only blank control tubes, containing no membrane protein) expressed as the means +/-S.D. of triplicate determinations. The horizontal dashed line indicates the level of non-specific binding observed in the presence of 1 μM DES. Caveolar-like membrane (CLM) preparation. Membrane fractions were prepared by adapting the detergent-free method of Smart et al. (Smart, 1995). […] The ethanol supernatants were transferred to liquid scintillation fluid (5 ml) and counted. […] Specific binding was calculated by subtracting non-specific from total binding.

**Q.** What does the source list for C[C@]12CC[C@@H]3c4ccc(O)cc4CC[C@H]3[C@@H]1CC[C@@H]2O [^3H-estradiol, 2,4,6,7, 16, 17-^3H estradiol]?
**A.** DES-sensitive estrogen binding ([1]; P7 ERKO neocortical lysates): 9.94 fmol/mg lysate protein; DES-sensitive estrogen binding ([1]; neocortical CLM preparations from P7 ERKO mice, 10 nM 3H-estradiol): 282.12 fmol/mg CLM protein; DES-sensitive estrogen binding ([1]; wild-type adult uterine lysates): 38.85 fmol/mg lysate protein; Kd [2]: ~1.6 nM
